The test system of the test is mos-CHIK-VRPs. Kind of test: VRP-based antiviral drug assay (luciferase) on Vero cells. Type of test: cell-based, CHIKV. The conditions noted are these: Chikungunya virus, Vero cells, 2,500 IU VRPs/well, 1 hour + 5 hours at 34° C., read-out: IC50 of inhibition of VRP infection. As to the method: Luciferase activity in the mos-CHIK-VRPs infected Vero cells was measured using a commercial luciferase assay kit (Promega) in accordance with the manufacturer's instructions. Signals reflecting the luciferase activity was read by a microplate reader (BioTek).
Suramin and 6-azauridine (6-AU) (both from Sigma-Aldrich) were dissolved in water to prepare the stock solutions (suramin, 50 mg/ml, 35 mM; 6-AU, 50 mg/ml, 200 mM) and then stored at −20° C. until use. Vero cells were seeded at a density of 1.5×10^4 cells/well (96 well white/clear bottom plate), and then infected with 2,500 IU VRPs/well in the presence of serially diluted suramin or 6-AU in MEM for 1 hour at 34° C. The suramin- or 6-AU-treated cells were then grown in a 5% FBS medium containing the corresponding concentrations of suramin or 6-AU for another 5 hours at 34° C., then VRP activity was measured by luciferase assay.

By IC50 is commonly meant the midpoint of a concentration-inhibition curve.

Regarding `O=c1cnn([C@@H]2O[C@H](CO)[C@@H](O)[C@H]2O)c(=O)[nH]1` [6-AU, 6-azauridine], the IC50 is 1.29 mg/L. Turning to `Cc1ccc(C(=O)Nc2ccc(S(=O)(=O)O)c3cc(S(=O)(=O)O)cc(S(=O)(=O)O)c23)cc1NC(=O)c1cccc(NC(=O)Nc2cccc(C(=O)Nc3cc(C(=O)Nc4ccc(S(=O)(=O)O)c5cc(S(=O)(=O)O)cc(S(=O)(=O)O)c45)ccc3C)c2)c1` [suramin], the IC50 worked out at 81.3 µM.

(Values after patent US20240277790A1, “RECOMBINANT BACULOVIRUSES, ALPHAVIRUS VIRUS-LIKE REPLICON PARTICLES PRODUCED THEREOF AND THEIR USES” (priority 2023, published 2024).)
